Measurements taken from the supplement of paper PMC10307832.

Assays:
Experiment in all cases: relative viability (nuclei count vs DMSO), 5 days (fraction); higher = more cells survive
[1] = compound: C1CC2=C(C1)C=C(C=C2)OC3=NC(=C4C(=N3)N(C=N4)CC5=CC=C(C=C5)C6=CC=CC=C6)N[C@@H](CC7=CC=CC=C7)CO [QS11] + NC(=O)Nc1cc(-c2cccc(F)c2)sc1C(=O)N[C@H]1CCCNC1 [AZD7762] (partner 0.2 µM)
How it was run: (§1)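 Relative viability divides the nuclei count in treated wells by that in vehicle wells. Lung cancer cell lines were seeded in 1536-well plates, dosed by pin tool the next day, and fixed and stained after 5 days in one step with final 0.05% Triton X-100, 1% formaldehyde and 1 ug/ml Hoechst. Dosing was a single drug or a fixed anchor-drug dose plus five library-drug doses (not always all listed) in √10 steps, and values are medians of duplicate plates imaged at 4×.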

[2] = compound: CC1=C(C=C(C=C1)NC(=O)C2=CC(=CC=C2)C(C)(C)C#N)NC3=CC4=C(C=C3)N=CN(C4=O)C [AZ628] + NC(=O)Nc1cc(-c2cccc(F)c2)sc1C(=O)N[C@H]1CCCNC1 [AZD7762] (partner 0.2 µM)
How it was run: as §1

[3] = compound: C[As](C)SC[C@H](NC(=O)CC[C@H](N)C(=O)O)C(=O)NCC(=O)O [Darinaparsin] + O=C(c1cc(Cc2n[nH]c(=O)c3ccccc23)ccc1F)N1CCN(C(=O)C2CC2)CC1 [Olaparib] (partner 8 µM)
How it was run: as §1

[4] = compound: C1CC2=C(C1)C=C(C=C2)OC3=NC(=C4C(=N3)N(C=N4)CC5=CC=C(C=C5)C6=CC=CC=C6)N[C@@H](CC7=CC=CC=C7)CO [QS11] + Cc1nc(Nc2ncc(C(=O)Nc3c(C)cccc3Cl)s2)cc(N2CCN(CCO)CC2)n1 [Dasatinib] (partner 0.075 µM)
How it was run: as §1

Row | Cell Line | relative viability ([1]; first compound 0.08 µM) | relative viability ([1]; first compound 0.253 µM) | relative viability ([1]; first compound 0.8 µM) | relative viability ([1]; first compound 2.53 µM) | relative viability ([1]; first compound 8 µM) | relative viability ([2]; first compound 0.08 µM) | relative viability ([2]; first compound 0.253 µM) | relative viability ([2]; first compound 0.8 µM) | relative viability ([2]; first compound 2.53 µM) | relative viability ([2]; first compound 8 µM) | relative viability ([3]; first compound 0.08 µM) | relative viability ([3]; first compound 0.8 µM) | relative viability ([3]; first compound 2.53 µM) | relative viability ([3]; first compound 8 µM) | relative viability ([4]; first compound 0.08 µM) | relative viability ([4]; first compound 0.253 µM) | relative viability ([4]; first compound 0.8 µM) | relative viability ([4]; first compound 2.53 µM) | relative viability ([4]; first compound 8 µM)
1 | LC-2-ad | 0.726 | 0.865 | 0.666 | 0.926 | 1.03 | 0.909 | 0.85 | 1.02 | 0.922 | 0.759 | 0.739 | 0.748 | 0.669 | 0.719 | 0.535 | 0.537 | 0.614 | 0.693 | 0.79
2 | BEN | 0.577 | 0.66 | 0.929 | 0.773 | 0.79 | 0.678 | 0.593 | 0.653 | 0.614 | 0.587 | 1.21 | 0.993 | 1.06 | 1.08 | 0.29 | 0.37 | 0.352 | 0.325 | 0.33
3 | NCI-H1651 | 0.445 | 0.481 | 0.487 | 0.458 | 0.404 | 0.466 | 0.393 | 0.44 | 0.448 | 0.318 | 0.192 | 0.18 | 0.18 | 0.159 | 0.486 | 0.306 | 0.333 | 0.495 | 0.291
4 | EKVX | 0.693 | 0.743 | 0.627 | 0.649 | 0.755 | 0.71 | 0.755 | 0.558 | 0.704 | 0.64 | 0.878 | 0.697 | 0.801 | 0.735 | 0.529 | 0.503 | 0.512 | 0.505 | 0.589
5 | NCI-H522 | 0.798 | 0.871 | 0.878 | 1.11 | 0.863 | 0.826 | 0.721 | 0.749 | 0.863 | 0.708 | 0.621 | 0.718 | 0.703 | 0.543 | 0.857 | 0.826 | 0.922 | 0.975 | 1.07
6 | HCC-15 | 1.27 | 1.26 | 0.877 | 1.22 | 0.461 | 1.16 | 1.07 | 1.08 | 1.01 | 0.894 | 0.762 | 0.712 | 0.738 | 0.722 | 0.649 | 0.611 | 0.532 | 0.73 | 0.49
7 | ChaGo-K-1 |  | 0.862 | 1 | 0.941 | 1 | 0.935 | 0.821 | 0.805 | 0.853 | 0.663 | 0.469 | 0.417 | 0.385 | 0.401 | 0.41 | 0.556 | 0.518 | 0.655 | 0.618
8 | LCLC-103H | 0.861 | 0.775 |  | 0.772 | 0.881 | 0.759 | 0.771 | 0.824 | 0.79 | 0.783 | 0.882 | 0.698 | 0.742 | 0.861 | 0.403 | 0.511 | 0.447 | 0.601 | 0.576
9 | RERF-LC-KJ | 1.06 | 0.836 | 0.728 | 0.879 | 0.945 | 0.948 | 0.901 | 1.56 | 1.03 | 0.87 | 1.12 | 0.859 | 0.924 | 0.775 | 0.921 | 0.836 | 0.764 | 0.61 | 0.534
10 | NCI-H2087 | 1.28 | 1.4 | 1.08 | 1.3 | 1.3 | 1.04 | 1.04 | 1.03 | 1.13 | 0.298 | 0.797 | 0.527 | 0.572 | 0.701 | 0.745 | 0.963 |  | 0.963 | 1.2
11 | LOU-NH91 | 0.764 | 0.707 | 0.751 | 0.719 | 0.818 | 0.75 | 0.712 | 0.727 | 0.68 | 0.603 | 0.932 | 0.869 | 0.912 | 0.964 | 0.56 | 0.51 | 0.524 | 0.628 | 0.602
12 | 201T | 0.669 | 0.748 | 0.591 | 0.619 | 0.617 | 0.523 | 0.541 | 0.57 | 0.462 | 0.45 | 0.942 | 0.851 | 0.803 | 0.863 | 0.57 | 0.543 | 0.561 | 0.599 | 0.376
13 | NCI-H1975 | 0.668 | 0.629 | 0.849 | 0.874 | 0.919 | 0.78 | 0.624 | 0.711 | 0.779 | 0.623 | 1.09 | 0.782 | 0.808 | 1.02 | 0.357 | 0.31 | 0.423 | 0.512 | 0.455
14 | NCI-H1395 | 0.389 | 0.382 | 0.4 | 0.432 | 0.404 | 0.431 | 0.421 | 0.381 | 0.372 | 0.358 | 0.457 | 0.441 | 0.407 | 0.404 | 0.387 | 0.361 | 0.382 | 0.408 | 0.419
15 | NCI-H1792 |  | 0.733 | 0.595 | 0.385 | 0.34 | 0.776 | 0.668 | 0.575 | 0.541 | 0.385 | 0.412 | 0.496 |  | 0.368 | 0.697 | 0.754 | 0.672 | 0.745 | 0.942
16 | NCI-H441 | 1.02 | 1.39 | 0.963 | 0.964 | 0.942 | 1.41 | 0.841 | 0.911 | 1.1 | 0.655 | 0.647 | 0.538 | 0.734 | 0.502 | 0.802 | 0.689 | 0.496 | 0.786 | 0.827
17 | HCC-366 | 0.28 | 0.259 |  | 0.271 | 0.192 | 0.248 | 0.193 | 0.235 | 0.207 | 0.149 | 0.502 |  | 0.328 | 0.42 | 0.7 | 0.616 |  | 0.578 | 0.576
18 | NCI-H1915 | 0.693 | 0.702 |  | 0.753 | 0.634 | 0.741 | 0.782 | 0.644 | 0.558 | 0.271 | 0.259 | 0.22 | 0.269 | 0.272 | 0.348 | 0.321 |  | 0.35 | 0.239
